Data: ChEMBL document CHEMBL4622878, “Cytotoxic Activity of Germacrane-Type Sesquiterpene Lactones from Dimerostemma aspilioides” (J Nat Prod, 2020)
Calls of active or inactive are those of the source. No cut-off for these calls is given here.

What was measured:
CCRF-CEM = test: Cytotoxicity against human CCRF-CEM cells after 48 hrs by MTT assay; assay type: functional, cell-based
K562-Lucena 1 [1] = test: Cytotoxicity against human K562-Lucena 1 cells after 48 hrs by MTT assay; assay type: functional, cell-based; conditions: K562-Lucena 1, 48 h
K562 [2] = test: Cytotoxicity against human K562 cells after 48 hrs by MTT assay; assay type: functional, cell-based; conditions: K562, 48 h
ADR5000 cell line = test: Cytotoxicity against human CEM/ADR5000 cells after 48 hrs by MTT assay; assay type: functional, cell-based; conditions: ADR5000, 48 h
K562 [3] = test: Induction of apoptosis in human K562 cells assessed as late apoptotic cells at 2 mM after 48 hrs by Annexin V-FITC/PI double staining based flow cytometry analysis (reference value: 0.41%); assay type: functional
K562 [4] = test: Induction of morphological changes in human K562 cells assessed as appearance of condensed chromatin at 2 mM incubated for 48 hrs by DAPI staining based fluorescence microscopy; assay type: functional, cell-based
K562 [5] = test: Induction of apoptosis in human K562 cells assessed as necrotic cells at 2 mM after 24 hrs by Annexin V-FITC/PI double staining based flow cytometry analysis (reference value: 0.085%); assay type: functional
K562 [6] = test: Induction of apoptosis in human K562 cells assessed as late apoptotic cells at 2 mM after 24 hrs by Annexin V-FITC/PI double staining based flow cytometry analysis (reference value: 0.79%); assay type: functional
K562-Lucena 1 [7] = test: Induction of cell cycle arrest in human K562-Lucena 1 cells assessed as early apoptotic cells at 2 mM after 48 hrs by propidium iodide staining based flow cytometric analysis (reference value: 7.57%); assay type: functional
K562 [8] = test: Induction of apoptosis in human K562 cells assessed as early apoptotic cells at 2 mM after 48 hrs by Annexin V-FITC/PI double staining based flow cytometry analysis (reference value: 1.67%); assay type: functional
K562-Lucena 1 [9] = test: Induction of cell cycle arrest in human K562-Lucena 1 cells assessed as early apoptotic cells at 2 mM after 24 hrs by propidium iodide staining based flow cytometric analysis (reference value: 7.79%); assay type: functional
K562-Lucena 1 [10] = test: Induction of morphological changes in human K562-Lucena 1 cells assessed as appearance of apoptotic bodies at 2 mM incubated for 48 hrs by DAPI staining based fluorescence microscopy; assay type: functional, cell-based
K562 [11] = test: Induction of apoptosis in human K562 cells assessed as early apoptotic cells at 2 mM after 24 hrs by Annexin V-FITC/PI double staining based flow cytometry analysis (reference value: 2.76%); assay type: functional
K562-Lucena 1 [12] = test: Induction of morphological changes in human K562-Lucena 1 cells assessed as appearance of condensed chromatin at 2 mM incubated for 48 hrs by DAPI staining based fluorescence microscopy; assay type: functional, cell-based
K562-Lucena 1 [13] = test: Induction of DNA fragmentation in human K562-Lucena 1 cells at 2 mM incubated for 48 hrs by DAPI staining based fluorescence microscopy; assay type: functional, cell-based
K562-Lucena 1 [14] = test: Induction of cell cycle arrest in human K562-Lucena 1 cells assessed as late apoptotic cells at 2 mM after 48 hrs by propidium iodide staining based flow cytometric analysis (reference value: 3.23%); assay type: functional
K562 [15] = test: Induction of apoptosis in human K562 cells assessed as viable cells at 2 mM after 48 hrs by Annexin V-FITC/PI double staining based flow cytometry analysis (Rvb =97.8%); assay type: functional; conditions: K562, 48 h, read-out: Activity
K562 [16] = test: Induction of morphological changes in human K562 cells assessed as appearance of apoptotic bodies at 2 mM incubated for 48 hrs by DAPI staining based fluorescence microscopy; assay type: functional, cell-based
K562 [17] = test: Induction of apoptosis in human K562 cells assessed as viable cells at 2 mM after 24 hrs by Annexin V-FITC/PI double staining based flow cytometry analysis (Rvb =96.4%); assay type: functional; conditions: K562, 24 h, read-out: Activity
K562 [18] = test: Induction of DNA fragmentation in human K562 cells at 2 mM incubated for 48 hrs by DAPI staining based fluorescence microscopy; assay type: functional, cell-based
K562-Lucena 1 [19] = test: Induction of cell cycle arrest in human K562-Lucena 1 cells assessed as late apoptotic cells at 2 mM after 24 hrs by propidium iodide staining based flow cytometric analysis (reference value: 3.15%); assay type: functional
K562-Lucena 1 [20] = test: Induction of cell cycle arrest in human K562-Lucena 1 cells assessed as necrotic cells at 2 mM after 48 hrs by propidium iodide staining based flow cytometric analysis (reference value: 2.15%); assay type: functional
K562-Lucena 1 [21] = test: Induction of cell cycle arrest in human K562-Lucena 1 cells assessed as viable cells at 2 mM after 24 hrs by propidium iodide staining based flow cytometric analysis (reference value: 88%); assay type: functional; conditions: K562-Lucena 1, 24 h, read-out: Activity
K562-Lucena 1 [22] = test: Induction of cell cycle arrest in human K562-Lucena 1 cells assessed as necrotic cells at 2 mM after 24 hrs by propidium iodide staining based flow cytometric analysis (reference value: 1.03%); assay type: functional
K562-Lucena 1 [23] = test: Induction of cell cycle arrest in human K562-Lucena 1 cells assessed as viable cells at 2 mM after 48 hrs by propidium iodide staining based flow cytometric analysis (reference value: 87.1%); assay type: functional; conditions: K562-Lucena 1, 48 h, read-out: Activity
K562 [24] = test: Induction of apoptosis in human K562 cells assessed as necrotic cells at 2 mM after 48 hrs by Annexin V-FITC/PI double staining based flow cytometry analysis (reference value: 0.13%); assay type: functional
K562 [25] = test: Induction of cell cycle arrest in human K562 cells assessed as decrease in accumulation of cells at S phase at 1.4 uM after 24 hrs by propidium iodide staining based flow cytometric analysis; assay type: functional
K562-Lucena 1 [26] = test: Induction of cell cycle arrest in human K562-Lucena 1 cells assessed as decrease in accumulation of cells at G1 phase at 40 uM after 24 hrs by propidium iodide staining based flow cytometric analysis; assay type: functional
K562 [27] = test: Induction of cell cycle arrest in human K562 cells assessed as decrease in accumulation of cells at G1 phase at 1.4 uM after 24 hrs by propidium iodide staining based flow cytometric analysis; assay type: functional

## C=C(CO)C(=O)O[C@H]1C/C(CO)=C/CC/C(C)=C/[C@H]2OC(=O)C(=C)[C@H]12
CCRF-CEM
  IC50: 460 nM
K562-Lucena 1 [1]
  IC50: > 10000 nM
K562 [2]
  IC50: 7000 nM
ADR5000 cell line
  IC50: 1700 nM

## NC(=O)NO [HYDROXYUREA]
K562 [3]
  Activity: 6.06%
K562 [4]
  Activity: Active
K562 [5]
  Activity: 0.75%
K562 [6]
  Activity: 0.45%
K562-Lucena 1 [7]
  Activity: 22.1%
K562 [8]
  Activity: 21.9%
K562-Lucena 1 [9]
  Activity: 15.3%
K562-Lucena 1 [10]
  Activity: Active
K562 [11]
  Activity: 2.82%
K562-Lucena 1 [12]
  Activity: Active
K562-Lucena 1 [13]
  Activity: Active
K562-Lucena 1 [14]
  Activity: 12.2%
K562 [15]
  viability at 2000 µM: 70.5%
K562 [16]
  Activity: Active
K562 [17]
  viability at 2000 µM: 96%
K562 [18]
  Activity: Active
K562-Lucena 1 [19]
  Activity: 5.06%
K562-Lucena 1 [20]
  Activity: 5.57%
K562-Lucena 1 [21]
  viability at 2000 µM: 77.7%
K562-Lucena 1 [22]
  Activity: 1.99%
K562-Lucena 1 [23]
  viability at 2000 µM: 60.1%
K562 [24]
  Activity: 1.5%

## COc1cccc2c1C(=O)c1c(O)c3c(c(O)c1C2=O)C[C@@](O)(C(=O)CO)C[C@@H]3O[C@H]1C[C@H](N)[C@H](O)[C@H](C)O1 [DOXORUBICIN]
K562 [25]
  Activity: inactive
K562-Lucena 1 [26]
  Activity: Active
CCRF-CEM
  IC50: 170 nM
K562-Lucena 1 [1]
  IC50: > 10000 nM
K562 [2]
  IC50: 1400 nM
ADR5000 cell line
  IC50: > 10000 nM
K562 [27]
  Activity: inactive
